Patent publication US7977336B2, “Aminopyrimidine derivatives as PLK1 inhibitors” (Banyu Pharmaceutical Co. Ltd, priority 2006, dated 2011)

Key:
HeLaS3 cells = assay: Inhibitory effect against cell proliferation: PLK1 inhibition at cellular level (M phase arrest, phospho-histone H3); format: cell-based; conditions: Homo sapiens, HeLa S3, 18 hours after addition, concentration inducing 50% of maximum ratio of cells arrested at M phase (histone H3 Ser10 phosphorylation)
Description: 3. Measurement of the Inhibitory Effect against Cell Proliferation: Measurement of the Inhibitory Activity Against PLK1 at Cellular Level
For the measurement of the PLK 1 inhibitory activity of the compound at a cellular level, human uterine cervix cancer cell lines HeLaS3 cells were used. The HeLaS3 cell was obtained from American Type Culture Collection (ATTC), and cultured in a CO2-incubator of saturated steam by using Dulbecco's Modified Eagle's Medium containing 10% fetal calf serum at 37° C. in the presence of 5% CO2.
It has been reported that PLK 1 plays an important role in various stages of mitotic phase (M-phase) in mammalian cells (Nature Review Molecular Cell Biology (Nat. Rev. Mol. Cell. Biol.), Vol. 5, 429, (2004)). In fact, when mammalian cells are treated with PLK 1 siRNA to control the expression level, the cell cycle progression is inhibited and thus the cells are arrested at M phase. At the time, when the phosphorylation level of 10th serine residue on histone H3, which is thought to be required for a chromosome condensation in M phase, is examined, then it is observed that the level is enhanced to a high level. Thus, after treating the cells with the compound according to the invention, the phosphorylation level of histone H3 was examined by the indirect fluorescent antibody technique; the M phase cells were identified by using the level thereof as an indicator to analyze the ratio of cells arrested at M phase; and further EC50 value of each compound was calculated to evaluate the PLK1 inhibitory activity at a cellular level.
First, HeLaS3 cells were seeded into a lysine-treated 96-well plate (Falcon Corp.) in the proportion of 3,000 per one well, and allowed to stand still in the above-mentioned CO2 incubator. 24 hours after the seeding, the compound according to the invention, which is diluted in series, was added into each well of the plate, and further allowed to stand still in the CO2 incubator. 18 hours after the addition of the compound according to the invention, the culture medium containing the compound according to the invention in each well of the plate was removed, and then 100 μL of ice-cold 100% methanol (Wako Pure Chemical Industries, Ltd.) was added, to carry out cell fixation for 10 minutes and treatment of increasing the membrane permeability. Subsequently, to the wells in which the methanol was removed, 50 μL of 1% BSA/PBS was added, and then blocking was carried out for 30 minutes. Thereafter, for the primary antibody reaction, 50 μL of 1% BSA/PBS containing a […] Anti-phospho Histone H3 (Ser10) antibody (Upstate Corp.) was added to the wells, and the plate was left over at room temperature for 90 minutes. After terminating the reaction, each well was once washed with PBS; and for the second antibody reaction, 50 μL of 1% BSA/PBS containing […] Cy5-labelled antirabbit IgG (H+L) antibody (Chemicon) and 10 ug/mL DAPI (Sigma) which is a nucleus staining regent, was added, and further left over at room temperature for 90 minutes. After terminating the reaction, the reaction solution in wells was removed and replaced with 100 μL of PBS, and then fluorescence images were captured by using IN Cell Analyzer 1000 (manufactured by GE Amersham) to analyze the ratio of M phase cells (Mitotic index) in each view. When the maximum value of the ratio of cells arrested at M phase which can be induced by each drug is assumed as 100%, the drug concentration required for inducing 50% out of that 100% is defined as EC50.

PLK1 (Wild Type) = target: T1, PLK1 (Wild Type) (Homo sapiens, UniProt P53350); assay: Inhibitory effect against PLK1 activity (Method B), PLK1 wild type, [γ-33P]ATP peptide phosphorylation; format: biochemical; conditions: 10 μM ATP, 20 μM substrate peptide, 25° C., 120 minutes
T1 construct: the N terminus of a full-length cDNA of a wild type PLK1 is fused with GST; purchased Carna Biosciences Inc; host or cells: insect cell (baculovirus)
Source text: 2. Measurement of Inhibitory Effect against PLK1 Activity (Method B)
Human PLK1 was purchased from Carna Biosciences Inc. According to the Product Information from Carna Biosciences Inc., the present enzyme is an enzyme obtained by preparing a baculovirus for which the N terminus of a full-length cDNA of a wild type PLK1 is fused with GST (glutathione S-transferase), followed by highly expressing PLK1 transfected into an insect cell as a GST-fused protein, and then carrying out a purification with the use of glutathione sepharose chromatography.
For the measurement of the PLK1 activity, a synthetic peptide (arginine-arginine-arginine-aspartic acid-glutamic acid-leucine-methionine-glutamic acid-alanine-serine-phenylalanine-alanine-aspartic acid-glutamine-glutamic acid-alanine-lysine-valine) (SEQ. ID. NO.: 1) in which the serine surrounding sequence of the amino acid sequence No. 198 of CDC25C having been reported as the site for PLK1 substrate [EMBO Report, 3rd edition, 341 (2002)] is altered, was used as a substrate for the PLK1.
The reaction was carried out in accordance with the method as described by Toyoshima-Morimoto et al. [Nature, Vol. 410, 215-220, (2001)]. The volume of the reaction solution was 10.5 μl and the composition of the reaction buffer was a 20 mM Tris-HCl buffer (pH 7.4)/10 mM magnesium chloride/0.5 mM dithiothreitol/1 mM EGTA (ethylene glycol-bis (beta-aminoethylether-N,N,N′,N′-tetraacetic acid). Thereto, purified PLK1, 20 μM of the substrate peptide, 10 μM of non-labeled adenosine triphosphate (ATP), and 0.3 μCi [γ-^33P]-labeled ATP (>2500 Ci/mmole) were added to perform the reaction at a reaction temperature of 25° C. for 120 minutes. Thereafter, 20 μI of a 350 mM phosphate buffer was added to the reaction system to terminate the reaction, and the resultant solution was spotted onto a multi-screen phosphocellulose filter on a 384-well plate. After the phosphocellulose filter is washed with a 75 mM phosphate buffer and then dried, the radioactivity was measured with a liquid cintillation counter. The non-labeled and [γ-^33P]-labeled ATPs, and the multi-screen phosphocellulose filter were purchased from GE Healthcare Bio-Sciences, and Millipore Corporation, respectively.
Addition of the compound of the present invention to the reaction system was carried out by adding 0.5 μl of the solution prepared by preliminarily dissolving the compound in dimethylsulfoxide at a 20-fold concentration of the final concentration. A control was provided by adding 0.5 μl of dimethylsulfoxide to the reaction system.

PLK1-T210D = target: T2, PLK1-T210D (Homo sapiens, UniProt P53350, T210D); assay: Inhibitory effect against PLK1 activity (Method A), PLK1-T210D, [γ-33P]ATP peptide phosphorylation; format: biochemical; conditions: 50 μM ATP, 50 μM substrate peptide, 25° C., 20 minutes
T2 construct: GST (N, cleaved yes); made in house; host or cells: Spodoptera frugiperda Sf9 insect cells (baculovirus)
Source text: 1. Measurement of the Inhibitory Effect against PLK 1 Activity (Method A)
It has been known that 210th codon of human PLK1 which originally codes for threonine can be changed to an active type by altering the site into aspartic acid [Molecular and Cell Biology (Mol. Cell. Biol.), 17th edition, 3408 (1997)]. In order to obtain a human active type PLK1 protein, cDNA of mutated PLK1 (PLK1-T210D) of which the 210th codon codes for aspartic acid by substituting a base in the 210th codon of human PLK1 cDNA, was prepared. A baculovirus for which the N terminus of the PLK1-T210D cDNA is fused with GST (glutathione S-transferase) was prepared, and then the PLK1-T210D transfected into a Spodoptera frugiperda (Sf) 9 insect cell was highly expressed as a GST-fused protein. The cells were recovered and suspended in a lysis buffer (50 mM tris-hydrochloric acid buffer (pH 7.4)/150 mM sodium chloride/1 mM EDTA (ethylenediamine tetraacetic acid)/1 mM dithiothreitol/0.1% polyoxyethylene sorbitan monolaurate) to break cells with sonicator, and supernatant was recovered after a centrifugation. The supernatant was reacted on glutathione sepharose beads, and then the beads were washed with a lysis buffer. Thereafter, the beads were reacted in a lysis buffer containing Precision Protease (available from GE Healthcare Bioscience Company) to recover supernatant. […]
The reaction was carried out in accordance with the method of Toyoshima-Morimoto et al. [Nature, Vol. 410, 215-220, (2001)]. […] After washing the phosphocellulose filter with 75 mM phosphate buffer, the filter was dried to measure the radioactivity with a liquid scintillation counter. […]

T2 sequence (P53350 whole entry T210D): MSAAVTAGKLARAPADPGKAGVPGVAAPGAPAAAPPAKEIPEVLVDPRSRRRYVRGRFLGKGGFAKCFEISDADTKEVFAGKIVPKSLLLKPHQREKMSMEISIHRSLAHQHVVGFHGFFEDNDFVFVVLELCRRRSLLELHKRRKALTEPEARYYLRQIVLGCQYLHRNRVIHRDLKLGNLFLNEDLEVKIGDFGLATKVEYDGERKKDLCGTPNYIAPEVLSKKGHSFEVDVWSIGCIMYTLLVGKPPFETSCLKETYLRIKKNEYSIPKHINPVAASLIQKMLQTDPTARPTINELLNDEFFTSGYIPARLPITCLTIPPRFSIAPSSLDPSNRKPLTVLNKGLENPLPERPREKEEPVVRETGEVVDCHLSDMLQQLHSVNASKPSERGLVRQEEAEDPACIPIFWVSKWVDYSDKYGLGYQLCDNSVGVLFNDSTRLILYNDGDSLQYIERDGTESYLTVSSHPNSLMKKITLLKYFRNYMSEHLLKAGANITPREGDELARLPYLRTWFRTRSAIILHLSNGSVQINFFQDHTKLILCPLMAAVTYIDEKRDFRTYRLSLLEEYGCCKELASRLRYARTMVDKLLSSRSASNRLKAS
T1 sequence (P53350 whole entry, the tested form may be a part): as the sequence (P53350 whole entry T210D) above, with D210T counted along it

Row | SMILES | EC50 (HeLaS3 cells) [nM] | IC50 (PLK1 (Wild Type)) [nM] | IC50 (PLK1-T210D) [nM]
1 | CCc1cccn2c(-c3nc(N[C@@H](C)c4ccc(C(O)C5CCN(C)CC5)cc4)ncc3C#N)cnc12 (single isomer, unassigned) [Example 24] | 4.6 | 1.4 | 4.1
2 | CCc1cccn2c(-c3nc(N[C@@H](C)c4ccc(C(O)[C@@H]5CCCN(C)C5)cc4)ncc3C#N)cnc12 (single isomer, unassigned) [Example 43] | 4 | 1.4 | 7
3 | C[C@H](Nc1ncc(F)c(-c2cnc3c(Cl)cccn23)n1)c1ccc(C(O)C(C)(C)N(C)C)cc1 (single isomer, unassigned) [Example 85] | 11 | 3.4 | –
4 | CC(C)N1CC(C(O)c2ccc([C@H](C)Nc3ncc(F)c(-c4cnc5c(Cl)cccn45)n3)cc2)C1 (single isomer, unassigned) [Example 89] | 13.9 | 2.4 | –
5 | CCc1cccn2c(-c3nc(N[C@@H](C)c4ccc([C@H](O)CNC(C)(C)C)cc4)ncc3C#N)cnc12 [Example 5, 2-[((1S)-1-{4-[(1S)-2-(tert-butylamino)-1-hydroxyethyl]phenyl}ethyl)amino]-4-(8-ethylimidazo[1,2-a]pyridin-3-yl)pyrimidine-5-carbonitrile] | 2.6 | 2.3 | –
6 | CCc1cccn2c(-c3nc(N[C@@H](C)c4ccc(C(O)[C@H]5CCCN5C)cc4)ncc3C#N)cnc12 (stereo partly drawn) [Example 55, 4-(8-ethylimidazo[1,2-a]pyridin-3-yl)-2-{[(1S)-1-(4-{hydroxy[(2R)-1-methylpyrrolidin-2-yl]methyl}phenyl)ethyl]amino}pyrimidine-5-carbonitrile] | 5 | – | 11
7 | C[C@H](Nc1ncc(C#N)c(-c2cnc3c(C4CC4)cccn23)n1)c1ccc([C@H](O)[C@@]2(C)CCCN2C)cc1 [Example 66, 4-(8-cyclopropylimidazo[1,2-a]pyridin-3-yl)-2-[((1S)-1-{4-[(S)-[(2R)-1,2-dimethylpyrrolidin-2-yl](hydroxy)methyl]phenyl}ethyl)amino]pyrimidine-5-carbonitrile] | 2.9 | 1.8 | –
8 | C[C@H](Nc1ncc(F)c(-c2cnc3c(Cl)cccn23)n1)c1ccc([C@H](O)CNC(C)(C)C)cc1 [Example 67, (1S)-2-(tert-butylamino)-1-[4-((1S)-1-{[4-(8-chloroimidazo[1,2-a]pyridin-3-yl)-5-fluoropyrimidin-2-yl]amino}ethyl)phenyl]ethanol] | 4 | 2.6 | –
9 | C[C@H](Nc1ncc(F)c(-c2cnc3c(Cl)cccn23)n1)c1ccc([C@H](O)CNC2(C)CCCC2)cc1 [Example 71, (1S)-1-[4-((1S)-1-{[4-(8-chloroimidazo[1,2-a]pyridin-3-yl)-5-fluoropyrimidin-2-yl]amino}ethyl)phenyl]-2-[(1-methylcyclopentyl)amino]ethanol] | 3.5 | 2.2 | –
10 | Cc1cnc(N[C@@H](C)c2ccc([C@H](O)CNC(C)(C)C)cc2)nc1-c1cnc2c(C3CC3)cccn12 [Example 73, (1S)-2-(tert-butylamino)-1-[4-((1S)-1-{[4-(8-cyclopropylimidazo[1,2-a]pyridin-3-yl)-5-methylpyrimidin-2-yl]amino}ethyl)phenyl]ethanol] | 5.7 | 10 | –
